Results: article PMC10191619, “Bilirubin gates the TRPM2 channel as a direct agonist to exacerbate ischemic brain damage” (Neuron, 2023)

What was measured:
Type in all cases: cell-based
hTRPM2 R302A/R358A = molecular target: T1, hTRPM2 R302A/R358A (Homo sapiens, UniProt O94759, R302A/R358A); experiment: Whole-cell patch-clamp, N-terminal ADPR-binding site mutant; details: ADPR
T1 construct: expressed in transfected cells; host or cells: HEK293T cells, transient transfection (Lipofectamine 3000), GFP cDNA co-transfected as a separate marker
Protocol: (§1) Human embryonic kidney 293 (HEK293) cells with tetracycline-inducible expression of human TRPM2 channel (hTRPM2) were cultured in a mixed medium containing DMEM/ F-12 (Gibco, USA) and 10% fetal bovine serum (Gibco, USA) as well as blasticidin (50 μg/ml, Invivogen, USA) and zeocin (0.4 mg/ml, Invivogen, USA). The expression of hTRPM2 was induced by substituting blasticin and zeocin for tetracycline (1 μg/ml, Sigma, USA) 24-48 hours before use. TRPM2 channel mutants were transiently expressed in HEK293T cells by transfection with using Lipofectamine 3000. Briefly, HEK293T cells were transiently transfected with cDNAs encoding the mutant hTRPM2 channel. The cDNA for GFP was co-transfected as a marker for identification of the transfected cells for electrophysiological experiments 16-24 hours after transfection. […]
(§2) Coronal cortical slices were transferred into the recording chamber and continuously perfused at room temperature with ACSF oxygenated with 95% O2 and 5% CO2. […] For whole-cell or single channel recordings from transfected HEK-293T cells, the coverslips were placed in a culture dish (35 × 35 mm, Sorfa) containing HEPES based extracellular solution (ECS) and recorded by patch-clamp technique. […] Each coverslip was recorded only once with different drug exposures. […]

TRPM2-ΔN/ΔC = molecular target: T2, TRPM2-ΔN/ΔC (Homo sapiens, UniProt O94759); experiment: Whole-cell patch-clamp, truncation mutant; details: ADPR 500 μM
T2 construct: expressed in transfected cells; host or cells: HEK293T cells, transient transfection, GFP cDNA co-transfected as a separate marker
Protocol: as §1, §2

[1] = molecular target: T3, hTRPM2 K928A/D1069A double mutant (Homo sapiens, UniProt O94759, D1069A/K928A); experiment: Whole-cell patch-clamp, bilirubin-binding cavity double mutant; details: intracellular ADPR 500 μM
T3 construct: expressed in transfected cells; host or cells: HEK293T cells, transient transfection, GFP cDNA co-transfected as a separate marker
Protocol: as §1, §2

T2 sequence (O94759 1-1449 isoform O94759-2): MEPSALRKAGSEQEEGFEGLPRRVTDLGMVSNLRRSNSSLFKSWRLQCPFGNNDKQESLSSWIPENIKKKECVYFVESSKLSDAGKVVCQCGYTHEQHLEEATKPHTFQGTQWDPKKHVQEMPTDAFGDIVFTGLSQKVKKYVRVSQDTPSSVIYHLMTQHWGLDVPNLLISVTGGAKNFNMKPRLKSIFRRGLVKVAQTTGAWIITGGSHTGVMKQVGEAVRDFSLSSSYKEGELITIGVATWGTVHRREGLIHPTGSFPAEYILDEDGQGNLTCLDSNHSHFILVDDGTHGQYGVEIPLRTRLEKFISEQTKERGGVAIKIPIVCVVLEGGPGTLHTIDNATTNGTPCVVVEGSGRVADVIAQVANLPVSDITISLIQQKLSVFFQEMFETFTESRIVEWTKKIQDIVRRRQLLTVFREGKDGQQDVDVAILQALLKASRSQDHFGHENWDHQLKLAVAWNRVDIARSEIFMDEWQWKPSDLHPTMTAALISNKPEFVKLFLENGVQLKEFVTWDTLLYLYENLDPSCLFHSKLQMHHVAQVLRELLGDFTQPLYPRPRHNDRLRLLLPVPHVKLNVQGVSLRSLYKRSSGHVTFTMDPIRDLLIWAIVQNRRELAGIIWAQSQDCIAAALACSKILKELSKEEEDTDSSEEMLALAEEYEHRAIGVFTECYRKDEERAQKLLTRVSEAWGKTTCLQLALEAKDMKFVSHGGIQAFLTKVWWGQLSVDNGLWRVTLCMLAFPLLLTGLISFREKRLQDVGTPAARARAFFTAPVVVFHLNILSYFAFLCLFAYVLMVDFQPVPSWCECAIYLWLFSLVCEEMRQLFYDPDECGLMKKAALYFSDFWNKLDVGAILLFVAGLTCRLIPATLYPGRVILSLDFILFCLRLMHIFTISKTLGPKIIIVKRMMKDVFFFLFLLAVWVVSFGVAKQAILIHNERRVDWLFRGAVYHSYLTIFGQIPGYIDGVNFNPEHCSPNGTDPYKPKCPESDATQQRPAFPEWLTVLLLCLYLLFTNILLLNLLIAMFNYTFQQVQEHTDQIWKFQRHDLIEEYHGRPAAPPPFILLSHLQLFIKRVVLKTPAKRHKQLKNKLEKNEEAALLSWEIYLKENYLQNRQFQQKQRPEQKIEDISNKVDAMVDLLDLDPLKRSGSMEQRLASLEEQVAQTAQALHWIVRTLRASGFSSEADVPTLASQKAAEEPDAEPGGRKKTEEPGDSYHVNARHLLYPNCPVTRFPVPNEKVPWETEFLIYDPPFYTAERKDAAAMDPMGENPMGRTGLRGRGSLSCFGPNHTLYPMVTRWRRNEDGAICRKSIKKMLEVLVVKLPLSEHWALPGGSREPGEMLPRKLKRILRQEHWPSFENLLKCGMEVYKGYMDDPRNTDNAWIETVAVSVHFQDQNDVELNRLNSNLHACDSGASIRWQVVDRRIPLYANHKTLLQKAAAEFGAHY
T3 sequence (O94759 whole entry K928A/D1069A): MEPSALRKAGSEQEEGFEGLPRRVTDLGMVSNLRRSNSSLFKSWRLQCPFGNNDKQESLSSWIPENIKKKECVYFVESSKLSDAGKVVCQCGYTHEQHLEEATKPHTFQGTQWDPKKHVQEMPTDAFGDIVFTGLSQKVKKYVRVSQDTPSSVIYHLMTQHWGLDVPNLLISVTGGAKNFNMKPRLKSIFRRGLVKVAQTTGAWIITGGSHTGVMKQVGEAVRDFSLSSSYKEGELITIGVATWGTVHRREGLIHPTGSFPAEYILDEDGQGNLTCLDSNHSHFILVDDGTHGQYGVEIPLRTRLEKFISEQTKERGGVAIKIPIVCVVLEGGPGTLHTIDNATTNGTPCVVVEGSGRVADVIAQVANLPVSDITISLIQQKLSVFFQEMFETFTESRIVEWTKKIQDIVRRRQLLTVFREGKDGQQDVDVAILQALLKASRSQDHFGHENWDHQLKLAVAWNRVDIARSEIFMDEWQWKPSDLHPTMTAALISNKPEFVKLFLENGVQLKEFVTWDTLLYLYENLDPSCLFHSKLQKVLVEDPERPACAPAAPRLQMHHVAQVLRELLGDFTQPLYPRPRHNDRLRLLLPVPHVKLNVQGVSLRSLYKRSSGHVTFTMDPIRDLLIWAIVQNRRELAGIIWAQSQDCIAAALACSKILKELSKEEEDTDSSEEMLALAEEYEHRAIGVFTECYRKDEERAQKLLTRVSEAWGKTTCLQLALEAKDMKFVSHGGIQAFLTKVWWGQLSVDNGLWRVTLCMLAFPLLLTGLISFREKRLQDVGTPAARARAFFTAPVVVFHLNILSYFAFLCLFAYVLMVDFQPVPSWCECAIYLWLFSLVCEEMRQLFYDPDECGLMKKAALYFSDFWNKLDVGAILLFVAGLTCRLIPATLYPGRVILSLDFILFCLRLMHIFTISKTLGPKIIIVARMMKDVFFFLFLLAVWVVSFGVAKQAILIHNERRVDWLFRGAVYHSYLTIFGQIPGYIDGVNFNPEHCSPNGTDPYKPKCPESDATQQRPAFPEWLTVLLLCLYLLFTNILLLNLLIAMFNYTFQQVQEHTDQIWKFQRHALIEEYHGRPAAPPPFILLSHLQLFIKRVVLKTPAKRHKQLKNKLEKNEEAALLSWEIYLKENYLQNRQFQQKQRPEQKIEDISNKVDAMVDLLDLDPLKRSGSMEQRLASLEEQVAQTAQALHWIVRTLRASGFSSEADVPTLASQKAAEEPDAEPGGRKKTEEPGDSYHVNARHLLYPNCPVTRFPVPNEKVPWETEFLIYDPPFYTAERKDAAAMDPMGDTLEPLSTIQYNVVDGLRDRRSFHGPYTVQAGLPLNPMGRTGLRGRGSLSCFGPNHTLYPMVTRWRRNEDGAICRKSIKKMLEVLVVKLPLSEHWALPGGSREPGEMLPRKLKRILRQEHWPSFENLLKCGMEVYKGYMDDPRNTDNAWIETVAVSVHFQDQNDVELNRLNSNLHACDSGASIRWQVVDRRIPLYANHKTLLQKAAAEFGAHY
T1 sequence (O94759 whole entry R302A/R358A): as the sequence (O94759 whole entry K928A/D1069A) above, with R302A, R358A, A928K, A1069D counted along it

Nc1ncnc2c1ncn2C1O[C@H](COP(=O)([O-])OP(=O)(O)OC[C@H]2OC(O)[C@H](O)[C@@H]2O)[C@@H](O)[C@H]1O.O.O.[Na+] (stereo partly drawn) [ADPR, Adenosine 5ʹ-diphosphoribose sodium salt]
activation of mutant TRPM2 currents (hTRPM2 R302A/R358A): failed to evoke currents | activation of mutant TRPM2 currents (TRPM2-ΔN/ΔC): eliminated the activation | activation of mutant TRPM2 currents [1]: perfectly retained their agonist capacity
